According to PMC7918738, “Microtubule Destabilizing Sulfonamides as an Alternative to Taxane-Based Chemotherapy” (International Journal of Molecular Sciences, 2021):

Assays:
[1] = tested on: microtubule network of MCF7, SKOV3, and HeLa cells; experiment: Immunofluorescence confocal microscopy of the microtubule network; format: cell-based, human; settings: 72 h, 38 600 nM, 45 400 nM
Method: The effect of MDS 38 and 45 on the tubulin cytoskeleton was analyzed in MCF7, SKOV3, and HeLa cells after 72-h treatments. The microtubule network was visualized by confocal microscopy staining α-tubulin in green, and cell nuclei were stained in blue with DAPI (4’,6-diamidino-2-phenylindole) (Figure 4).
MCF7, SKOV-3, and HeLa cells were grown on glass coverslips coated with poly-L-lysine (12 mm diameter). To reach appropriate cell confluence, coverslips were manipulated in 6-well plates (3 coverslips/well) seeding 3 mL/well of cells in the exponential growth phase at 2 × 10^4 cells/mL. After 24 h incubation, cells were treated with selected compounds and incubated for 72 h. Cells were washed with PBS, fixed with 4% formaldehyde in PBS for 10 min, permeabilized with 0.5% Triton X-100 (Boehringer Mannheim, Ingelheim am Rhein, Germany) in PBS for 10 min and blocked with 10% BSA in PBS for 30 min. Microtubule detection was performed by incubation with anti-α-tubulin mouse monoclonal antibody (1:200 in 3% BSA/PBS) (Sigma-Aldrich) for 1.5 h. After PBS washing, coverslips were incubated with fluorescent secondary antibody Alexa Fluor 488 goat anti-mouse IgG (1:400 in 1% BSA/PBS) (Molecular Probes, Invitrogen, Thermo Fischer Scientific) for 1 h in darkness. […] Cells were analyzed by confocal microscopy using a LEICA SP5 microscope DMI-6000V model coupled to a LEICA LAS AF software computer.

[2] = tested on: SKOV3 ovarian carcinoma cells; set-up: method as in PMID 29291446; settings: read-out: Antiproliferative IC50 SKOV3; cited from earlier work

Row | Compound | Effect on the microtubule network (α-tubulin immunofluorescence) [1] | IC50 [2]
1 | CNc1ccc(S(=O)(=O)N(C)c2cc(OC)c(OC)c(OC)c2)cc1 [Compound 38] | disrupted the microtubule system | –
2 | COc1ccc(/C=C\c2cc(OC)c(OC)c(OC)c2)cc1O [Combretastatin A-4, reference compound] | – | 380 nM
3 | COc1ccc(S(=O)(=O)N(Cc2ccccc2)c2cc(OC)c(OC)c(OC)c2)cc1N [Compound 45] | disrupted the microtubule system | –
